Patent publication US11096923B2, “Pharmaceutical composition containing polymyxin B/trimethoprim based therapeutics” (University of Rochester, priority 2016, dated 2021)

Experiments:
[1] = system: P. aeruginosa strain PA01 biofilms; test: Biofilm susceptibility; assay type: cell-based, Pseudomonas aeruginosa; conditions: established PA01 biofilm, 24 hrs treatment, 32×MIC
From the text: (§1) Bacterial strains used in these studies include the conventional laboratory strains Pseudomonas aeruginosa PA01 and Staphylococcus aureus UAMS-1, both of which are antibiotic susceptible and capable of forming robust biofilms. See […], Thomas J R, Nelson […]. Role of the accessory gene regulator (agr) in pathogenesis of staphylococcal osteomyelitis. Infection and immunity 1995; 63:3373-3380. Seven clinical keratitis isolates of Pseudomonas aeruginosa, were collected from the Flaum Eye Institute, Rochester N.Y. and 25 clinical isolates of Staphylococcus aureus from geographically distinct regions of the country where purchased from International Health Management Associates (IHMA; Schaumburg, Ill.). […] After 24 hrs the remaining media and non-adherent cells were removed, biofilms were suspended in 0.8% NaCl and plated to quantify surviving bacteria. […] Biofilms were treated in increasing increments ranging from 0 to 64×MIC.

P. aeruginosa PAO1 = test: Selleck library screen in presence of sub-inhibitory polymyxin B/trimethoprim; assay type: cell-based, Pseudomonas aeruginosa; set-up: key: Growth (+); no growth (−)
Procedure: (§2) To identify agents that potentiate the antimicrobial activity of polymyxin B/trimethoprim we first determined the highest concentration of the polymyxin B/trimethoprim combination that allowed growth of P. aeruginosa strain PAO1 and S. aureus strain UAMS-1.
For Selleck library screening, individual wells of 96-well microtiter plates containing 88 μl of fresh media were inoculated with approximately 10^5 CFUs of P. aeruginosa strain PAO1 or S. aureus UAMS-1. Next, 2 μl of polymyxin B/trimethoprim was added to a final concentration of 0.2 μg ml^−1 or 1.25 μg ml^−1 for PA01 and UAMS-1, respectively. Library members were then added at either 5 μM or 50 μM final concentration. Plates were incubated at 37° C. for 16 hours and hits were identified as wells with no visible growth. […]

S. aureus = test: Fractional inhibitory concentration, checkerboard MIC; assay type: cell-based, Staphylococcus aureus; conditions: for MIC in combination: PT combined with rifampicin; for MIC: Staphylococcus aureus
S. aureus UAMS-1 = test: Selleck library screen in presence of sub-inhibitory polymyxin B/trimethoprim; assay type: cell-based, Staphylococcus aureus; set-up: key: Growth (+); no growth (−)
Procedure: as §2
For Selleck library screening, individual wells of 96-well microtiter plates containing 88 μl of fresh media were inoculated with approximately 10^5 CFUs of P. aeruginosa strain PAO1 or S. aureus UAMS-1. Next, 2 μl of polymyxin B/trimethoprim was added to a final concentration of 0.2 μg ml^−1 or 1.25 μg ml^−1 for PA01 and UAMS-1, respectively. Library members were then added at either 5 μM or 50 μM final concentration. Plates were incubated at 37° C. for 16 hours and hits were identified as wells with no visible growth.
To do so, 10^5 CFUs of S. aureus strain UAMS-1 were inoculated in individual wells of a microtiter plate supplemented with 1.2 μg ml^−1 of polymyxin B/trimethoprim, (0.25×MIC). Library members were added at low (5 μM) or high (50 μM) concentrations and then scored for agents that inhibited growth following overnight incubation. Such agents were expected to represent compounds that display antimicrobial activity on their own and/or that potentiate the antimicrobial activity of polymyxin B/trimethoprim.

[2] = system: S. aureus UAMS-1 biofilms; test: Biofilm susceptibility; assay type: cell-based, Staphylococcus aureus; conditions: established S. aureus biofilm, 24 hrs treatment, 32×MIC
From the text: as §1, with “Ill.). For experiments requiring planktonic cultures, the indicated organism was grown overnight in Luria-Bertani broth (LB; […] Biofilms were established by inoculating individual wells of flat-bottom polystyrene plates (Falcon, Corning Life Sciences; Durham, N.C.) with overnight cultures of the indicated organism into 200 ul of fresh LB to a final concentration of 1×10^7 CFU ml^-1. Plates were placed in a 37° C.-humidified incubator for 72 hours to allow static biofilm formation. Non-adherent cells were aspirated and biofilms were washed twice with phosphate-buffered saline prior to each experiment.” for “Ill.).”

CO[C@H]1/C=C/O[C@@]2(C)Oc3c(C)c(O)c4c(O)c(c(/C=N/N5CCN(C)CC5)c(O)c4c3C2=O)NC(=O)/C(C)=C\C=C\[C@H](C)[C@H](O)[C@@H](C)[C@@H](O)[C@@H](C)[C@H](OC(C)=O)[C@@H]1C [Rifampicin, rifampicin] was tested, and the “reduction in biofilm-associated CFU” value [1] was 5 log, the “P. aeruginosa growth, 5 μM” value (P. aeruginosa PAO1; drug 5 μM in presence of 0.2 μg ml^−1 polymyxin B/trimethoprim) was “−” and the “P. aeruginosa growth, 50 μM” value (P. aeruginosa PAO1; drug 50 μM in presence of 0.2 μg ml^−1 polymyxin B/trimethoprim) was “−”. For the same molecule, the MIC in combination (S. aureus; S. aureus 1071788) was 0.0015 µg/mL, the MIC in combination (S. aureus; S. aureus 1094094) was 0.0015 µg/mL and the MIC in combination (S. aureus; S. aureus 1094140) was 0.0015 µg/mL. The MIC in combination (S. aureus; S. aureus 1094147) was 0.0015 µg/mL, the MIC in combination (S. aureus; S. aureus 1094166) was 0.0015 µg/mL and the MIC in combination (S. aureus; S. aureus 1094178) was 0.0076 µg/mL. It also gave an MIC in combination (S. aureus; S. aureus 1097612) of 0.0035 µg/mL, an MIC in combination (S. aureus; S. aureus 1097630) of 0.0015 µg/mL and an MIC in combination (S. aureus; S. aureus 1101442) of 0.0035 µg/mL. It also gave an MIC in combination (S. aureus; S. aureus 1103430) of 0.0015 µg/mL, an MIC in combination (S. aureus; S. aureus 1110936) of 0.0035 µg/mL and an MIC in combination (S. aureus; S. aureus 1111063) of 0.0076 µg/mL. The MIC in combination (S. aureus; S. aureus 1122181) was 0.0015 µg/mL, the MIC in combination (S. aureus; S. aureus 1122187) was 0.0035 µg/mL and the MIC in combination (S. aureus; S. aureus 1122190) was 0.0035 µg/mL. It also gave an MIC in combination (S. aureus; S. aureus 1122197) of 0.0015 µg/mL, an MIC in combination (S. aureus; S. aureus 1125120) of 0.0076 µg/mL and an MIC in combination (S. aureus; S. aureus 1132822) of 0.0015 µg/mL. The MIC in combination (S. aureus; S. aureus 1142776) was 0.0015 µg/mL, the MIC in combination (S. aureus; S. aureus 1144105) was 0.0035 µg/mL and the MIC in combination (S. aureus; S. aureus UAMS-1) was 0.0015 µg/mL. It also gave an MIC (S. aureus; S. aureus 1071788) of 0.01 µg/mL, an MIC (S. aureus; S. aureus 1094094) of 0.01 µg/mL and an MIC (S. aureus; S. aureus 1094140) of 0.01 µg/mL. It also gave an MIC (S. aureus; S. aureus 1094147) of 0.01 µg/mL, an MIC (S. aureus; S. aureus 1094166) of 0.01 µg/mL and an MIC (S. aureus; S. aureus 1094178) of 0.1 µg/mL. The MIC (S. aureus; S. aureus 1097612) was 0.05 µg/mL, the MIC (S. aureus; S. aureus 1097630) was 0.01 µg/mL and the MIC (S. aureus; S. aureus 1101442) was 0.05 µg/mL. The MIC (S. aureus; S. aureus 1103430) was 0.01 µg/mL, the MIC (S. aureus; S. aureus 1110936) was 0.05 µg/mL and the MIC (S. aureus; S. aureus 1111063) was 0.1 µg/mL. For the same molecule, the MIC (S. aureus; S. aureus 1122181) was 0.01 µg/mL, the MIC (S. aureus; S. aureus 1122187) was 0.05 µg/mL and the MIC (S. aureus; S. aureus 1122190) was 0.05 µg/mL. It also gave an MIC (S. aureus; S. aureus 1122197) of 0.01 µg/mL, an MIC (S. aureus; S. aureus 1125120) of 0.05 µg/mL and an MIC (S. aureus; S. aureus 1132822) of 0.01 µg/mL. It also gave an MIC (S. aureus; S. aureus 1142776) of 0.01 µg/mL, an MIC (S. aureus; S. aureus 1144105) of 0.05 µg/mL and an MIC (S. aureus; S. aureus UAMS-1) of 0.01 µg/mL. For the same molecule, the “S. aureus growth, 5 μM” value (S. aureus UAMS-1; drug 5 μM in presence of 1.2 μg ml^−1 polymyxin B/trimethoprim) was “−”, the “S. aureus growth, 50 μM” value (S. aureus UAMS-1; drug 50 μM in presence of 1.2 μg ml^−1 polymyxin B/trimethoprim) was “−” and the “reduction in biofilm-associated CFU” value [2] was 4 log.
